# Measurements as given in patent publication US11555012B2 (Nimbus Artemis, Inc., priority 2018, dated 2023).
# Biological target: ACL (Homo sapiens (Human), UniProt P53396)
# Assay: ADP-Glo Assay
# ACL, sequence (P53396 other isoform, or with tags, fused parts or gaps isoform P53396-2): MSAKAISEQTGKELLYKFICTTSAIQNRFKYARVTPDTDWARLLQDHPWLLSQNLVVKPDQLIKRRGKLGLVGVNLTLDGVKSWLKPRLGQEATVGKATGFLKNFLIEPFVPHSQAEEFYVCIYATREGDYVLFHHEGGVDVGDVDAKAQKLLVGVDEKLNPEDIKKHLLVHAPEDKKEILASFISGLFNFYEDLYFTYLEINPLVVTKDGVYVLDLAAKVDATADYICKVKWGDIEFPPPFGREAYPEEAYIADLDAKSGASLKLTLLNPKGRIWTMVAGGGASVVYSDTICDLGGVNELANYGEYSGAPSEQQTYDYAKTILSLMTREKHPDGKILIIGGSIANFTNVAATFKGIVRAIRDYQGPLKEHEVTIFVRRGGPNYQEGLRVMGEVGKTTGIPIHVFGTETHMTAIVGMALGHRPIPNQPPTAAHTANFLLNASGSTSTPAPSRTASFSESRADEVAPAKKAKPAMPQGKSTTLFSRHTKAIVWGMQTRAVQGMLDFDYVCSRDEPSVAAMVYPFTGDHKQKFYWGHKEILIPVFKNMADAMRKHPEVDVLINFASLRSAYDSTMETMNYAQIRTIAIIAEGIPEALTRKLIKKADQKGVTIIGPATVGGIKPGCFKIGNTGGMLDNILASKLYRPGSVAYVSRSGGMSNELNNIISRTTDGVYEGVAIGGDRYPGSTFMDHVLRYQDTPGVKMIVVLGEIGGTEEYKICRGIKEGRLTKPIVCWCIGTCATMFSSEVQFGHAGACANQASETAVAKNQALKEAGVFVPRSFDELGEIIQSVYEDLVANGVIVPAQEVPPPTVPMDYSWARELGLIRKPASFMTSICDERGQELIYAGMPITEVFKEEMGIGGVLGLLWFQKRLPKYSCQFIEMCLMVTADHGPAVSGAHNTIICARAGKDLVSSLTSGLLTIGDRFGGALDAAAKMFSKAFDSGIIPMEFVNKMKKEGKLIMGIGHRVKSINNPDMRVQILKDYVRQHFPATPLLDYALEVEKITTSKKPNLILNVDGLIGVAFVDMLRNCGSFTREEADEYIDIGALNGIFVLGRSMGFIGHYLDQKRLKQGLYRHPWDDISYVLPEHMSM
row,Compound,IC50
1,CC(C)n1ncc2cc(NS(=O)(=O)c3cc(Cl)cc(Cl)c3O)ccc21 [I-169],0.5 to 20 µM
2,O=S(=O)(Nc1cnn(-c2ccccc2)c1)c1cc(Cl)cc(Cl)c1O [I-170],0.5 to 20 µM
3,O=S(=O)(Nc1ccc(OCc2ccccc2)cc1)c1cc(Cl)cc(Cl)c1O [I-171],0.5 to 20 µM
4,CC(C)(C)Cc1nc2cc(NS(=O)(=O)c3cc(Cl)cc(Cl)c3O)ccc2o1 [I-172],0.5 to 20 µM
5,CC(C)(CNS(=O)(=O)c1cc(Cl)cc(Cl)c1O)c1cccs1 [I-173],0.5 to 20 µM
6,NC(=O)c1sc2ccccc2c1NS(=O)(=O)c1cc(Cl)cc(Cl)c1O [I-174],0.5 to 20 µM
7,CC(=O)N1CCCN(c2ccc(F)cc2NS(=O)(=O)c2cc(Cl)cc(Cl)c2O)CC1 [I-175],0.5 to 20 µM
8,O=S(=O)(NC1CCN(c2nc3ccccc3s2)CC1)c1cc(Cl)cc(Cl)c1O [I-176],0.5 to 20 µM
9,O=S(=O)(Nc1cccc(-n2nccn2)c1)c1cc(Cl)cc(Cl)c1O [I-177],0.5 to 20 µM
10,CC(C)NC(=O)c1ccc(NS(=O)(=O)c2cc(Cl)cc(Cl)c2O)cc1 [I-178],0.5 to 20 µM
11,CN(C)C(=O)C(NS(=O)(=O)c1cc(Cl)cc(Cl)c1O)c1ccccc1 (centres unmarked) [I-179],0.5 to 20 µM
12,O=S(=O)(NC1(c2ccc(F)cc2)CC1)c1cc(Cl)cc(Cl)c1O [I-180],0.5 to 20 µM
13,Cc1c(CNS(=O)(=O)c2cc(Cl)cc(Cl)c2O)n(C)c2ccccc12 [I-181],0.5 to 20 µM
14,O=S(=O)(Nc1cc(F)cc(N2CCOCC2)c1)c1cc(Cl)cc(Cl)c1O [I-182],0.5 to 20 µM
15,O=S(=O)(NC1CCN(c2ccccc2)C1)c1cc(Cl)cc(Cl)c1O (centres unmarked) [I-183],0.5 to 20 µM
16,CC(NS(=O)(=O)c1cc(Cl)cc(Cl)c1O)c1ccc2c(c1)NC(=O)CO2 (centres unmarked) [I-184],0.5 to 20 µM
17,O=S(=O)(NCC1COc2ccccc2C1)c1cc(Cl)cc(Cl)c1O (centres unmarked) [I-185],0.5 to 20 µM
18,O=S(=O)(Nc1cccc2cccc(F)c12)c1cc(Cl)cc(Cl)c1O [I-186],0.5 to 20 µM
19,O=S(=O)(NCC1(Cc2ccc(F)cc2)CC1)c1cc(Cl)cc(Cl)c1O [I-187],0.5 to 20 µM
20,COc1cccc(CCNS(=O)(=O)c2cc(Cl)cc(Cl)c2O)c1 [I-188],0.5 to 20 µM
21,O=S(=O)(Nc1cnc(-c2ccccc2)s1)c1cc(Cl)cc(Cl)c1O [I-189],0.5 to 20 µM

row,Compound,IC50
1,"O=S(=O)(Nc1cc(-c2ccccc2)c(F)cc1F)c1cccc(Cl)c1Cl [I-190, 2,3-dichloro-N-[4,6-difluoro-[1,1-biphenyl]-3-yl]benzene-1-sulfonamide]",0.5 to 20 µM
2,"COC(=O)c1cccc(S(=O)(=O)Nc2cc(-c3ccccc3)c(F)cc2F)c1 [I-191, methyl 3-([4,6-difluoro-[1,1-biphenyl]-3-yl]sulfamoyl)benzoate]",0.5 to 20 µM
3,"O=S(=O)(Nc1cc(-c2ccccc2)c(F)cc1F)c1cccc(Cl)c1F [I-195, 3-chloro-N-(4,6-difluoro-[1,1′-biphenyl]-3-yl)-2-fluorobenzenesulfonamide]",0.5 to 20 µM
4,"N#Cc1cc(S(=O)(=O)Nc2cc(-c3ccccc3)c(F)cc2F)ccc1Cl [I-196, 4-chloro-3-cyano-N-(4,6-difluoro-[1,1′-biphenyl]-3-yl) benzenesulfonamide]",0.5 to 20 µM
5,"O=C(O)COc1c(Cl)cc(C(=O)N2CCC2)cc1S(=O)(=O)Nc1cc(-c2ccccc2)c(F)cc1F [I-199, 2-[4-(azetidine-1-carbonyl)-2-chloro-6-([4,6-difluoro-[1,1-biphenyl]-3-yl]sulfamoyl)phenoxy]acetic Acid]",0.5 to 20 µM
6,"O=S(=O)(Nc1cc(-c2ccccc2)c(F)cc1F)c1cc(Cl)cc(C(F)(F)F)c1 [I-204, 3-chloro-N-[4,6-difluoro-[1,1-biphenyl]-3-yl]-5-(trifluoromethyl)benzene-1-sulfonamide]",0.5 to 20 µM
7,"O=C(c1cc(Cl)c(O)c(SCc2cc(-c3ccccc3)c(F)cc2F)c1)N1CCCC1 [I-205, (3-chloro-5-(((4,6-difluoro-[1,1′-biphenyl]-3-yl)methyl)thio)-4-hydroxyphenyl)(pyrrolidin-1-yl)methanone]",0.5 to 20 µM
8,"O=S(=O)(Nc1cc(-c2ccccc2)ccc1F)c1cc(Cl)cc(Cl)c1F [I-207, 3,5-dichloro-2-fluoro-N-[4-fluoro-[1,1-biphenyl]-3-yl]benzene-1-sulfonamide]",0.5 to 20 µM
9,"CN(C)C(=O)Oc1c(Cl)cc(C(=O)N2CCC2)cc1S(=O)(=O)Nc1cc(-c2ccccc2)c(F)cc1F [I-209, 4-(azetidine-1-carbonyl)-2-chloro-6-([4,6-difluoro-[1,1-biphenyl]-3-yl]sulfamoyl)phenyl N,N-dimethylcarbamate]",0.5 to 20 µM
10,"CC(C)(C)C(=O)Oc1c(Cl)cc(C(=O)N2CCC2)cc1S(=O)(=O)Nc1cc(-c2ccccc2)c(F)cc1F [I-210, 4-(azetidine-1-carbonyl)-2-chloro-6-(N-(4,6-difluoro-[1,1′-biphenyl]-3-yl)sulfamoyl)phenyl Pivalate]",0.5 to 20 µM
11,"CC(C)(C)OC(=O)COc1ccc(-c2ccccc2)cc1NS(=O)(=O)c1cc(Cl)cc(Cl)c1O [I-214, tert-butyl 2-[[3-(3,5-dichloro-2-hydroxybenzenesulfonamido)-[1,1-biphenyl]-4-yl]oxy]acetate]",0.5 to 20 µM
12,"O=C(c1cc(Cl)c(O)c(NS(=O)(=O)c2cc(-c3ccccc3)ccc2F)c1)N1CCC1 [I-215, N-[5-(azetidine-1-carbonyl)-3-chloro-2-hydroxyphenyl]-4-fluoro-[1,1-biphenyl]-3-sulfonamide]",0.5 to 20 µM
13,"O=C(Nc1cc(C(=O)N2CCC2)cc(Cl)c1O)c1cc(-c2ccccc2)ccc1F [I-216, N-(5-(azetidine-1-carbonyl)-3-chloro-2-hydroxyphenyl)-4-fluoro-[1,1′-biphenyl]-3-carboxamide]",0.5 to 20 µM
14,"O=C(Oc1c(Cl)cc(C(=O)N2CCC2)cc1S(=O)(=O)N(C(=O)C1CC1)c1cc(-c2ccccc2)c(F)cc1F)C1CC1 [I-217, 4-(azetidine-1-carbonyl)-2-chloro-6-[(1-cyclopropyl-N-[4,6-difluoro-[1,1-biphenyl]-3-yl]formamido)sulfonyl]phenylcyclopropanecarboxylate]",0.5 to 20 µM
15,"N#Cc1cc(Cl)cc(S(=O)(=O)Nc2cc(-c3ccccc3)ccc2O)c1 [I-218, 3-chloro-5-cyano-N-[4-hydroxy-[1,1-biphenyl]-3-yl]benzene-1-sulfonamide]",0.5 to 20 µM
16,"O=S(=O)(Nc1ccc(F)cc1F)c1cc(Cl)cc(Cl)c1O [I-219, 3,5-dichloro-N-(2,4-difluorophenyl)-2-hydroxybenzene-1-sulfonamide]",0.5 to 20 µM
17,"O=S(=O)(Nc1cc(-c2ccccc2)ccc1F)c1cc(Cl)cc2ccoc12 [I-223, 5-chloro-N-[4-fluoro-[1,1-biphenyl]-3-yl]-1-benzofuran-7-sulfonamide]",0.5 to 20 µM
18,"O=S(=O)(Nc1cc(-c2ccccc2)ccc1O)c1cc(Cl)cc(Cl)c1 [I-224, 3,5-dichloro-N-(4-hydroxy-[1,1′-biphenyl]-3-yl)benzenesulfonamide]",0.5 to 20 µM
19,"O=C(O)c1ccc(-c2ccccc2)cc1NS(=O)(=O)c1ccccc1 [I-225, 3-(phenylsulfonamido)-[1,1′-biphenyl]-4-carboxylic Acid]",0.5 to 20 µM
20,"O=C(O)c1ccc(-c2ccccc2)cc1NS(=O)(=O)c1cc(Cl)cc(C(=O)N2CCC2)c1 [I-227, 3-((3-(azetidine-1-carbonyl)-5-chlorophenyl)sulfonamido)-[1,1′-biphenyl]-4-carboxylic Acid]",0.5 to 20 µM
